Reference: PMC8803906, “Metabolite Identification and Pharmacokinetic Behavior of Diaveridine in the Plasma of Pigs and Chickens Based on Radioactive Tracing Coupled With LC/MS-IT-TOF Assay” (Frontiers in Veterinary Science, 2022)
“Also recorded” adds a separate entry of the source.

What was measured:
[1] = Plasma pharmacokinetics of DVD and its metabolites in pigs after a single oral dose of ^3H-DVD (radioactive tracing, LC-v.ARC/MS-IT-TOF); settings: for Concentration in plasma: pigs
From the text: (§1) Four healthy castrated male pigs (Landrace/Doric Cross, 60-d-old, 30 ± 2 kg) were supplied by the China Breeding Pig Testing Center of Huazhong Agricultural University (Wuhan, China). Six healthy Cobb 500 broiler chickens (three female and three male, 40-d-old, 2.5 ± 0.1 kg) were purchased from Wuhan Chia Tai chicken farm (Wuhan, China). All animals were maintained under standard environmental conditions by using normal husbandry practices and were acclimatized for 1 week. The animals were fed a commercial standard diet and water ad libitum, but were fasted overnight before dose administration and up to 4 h after dose administration. All animal care and experimental protocols were conducted in accordance with the Guide for the Care and Use of Laboratory Animals of Hubei Provincial Laboratory Animal Public Service Center (permit number SYXK 2013-0044) and approved by the Ethics Committee of Huazhong Agricultural University.
(§2) Pigs (n = 4) and chickens (n = 6) were weighed individually and given a single dose of 10 mg/kg BW ^3H-DVD with a specific activity of 0.23 Ci/g. The ^3H-DVD solution was prepared by accurately mixing ^3H-DVD and non-labeled DVD at a mass ratio of 1:96 and diluting it with 0.5% methylcellulose to make a homogeneous suspension with a concentration of 25 mg/ml. The suspension was administered by gastric gavage using a soft stomach tube connected to an injection syringe. About 1.5 ml of blood was collected into heparinized tubes from the anterior venae cavae of pig and the wing veins of chicken at different time points. For pigs, blood was collected before administration and 0.17, 0.33, 0.5, 0.67, 1, 1.5, 2, 4, 6, 8, 12, 24, 48, 72, 168, and 336 h after oral treatment. For chickens, blood was collected before administration and 0.25, 0.5, 1, 1.5, 2, 4, 6, 8, 12, 24, 36, 48, 72, 168, and 336 h after oral dosing. Plasma samples were collected after centrifugation at 4°C and 2,254 × g for 10 min and were stored at −20°C until analysis.
(§3) Plasma samples were completely thawed at room temperature. Each sample was divided into two parts, one was used for the assay of total radioactivity, and the other was subjected to a MCX Solid Phase Extraction (SPE) procedure for the qualitative and quantitative analysis of DVD-related metabolites.
(§4) The total radioactivity assay was conducted in accordance with a previous study with a few modifications ([20]). Briefly, 50 μl of plasma was mixed with 50 μl of 0.1 mol/L EDTA-Na and 50 μl of 30% H2O2 at 50°C in a shaking water bath for 2 h for bleaching. The obtained transparent liquid was mixed with 10 ml of Ultima Gold™ scintillation fluid and was analyzed directly using a Packard Tri-Carb 2900 TR liquid scintillation counter (PerkinElmer Life and Analytical Sciences, Waltham, MA, USA). The scintillation counter data were automatically corrected for counting efficiency using an instrument-stored quench curve that was drawn with a series of sealed quenched ^14C standards. All the samples were analyzed in duplicate and the actual radioactivity of each sample was calculated by subtracting the […].
(§5) A 500 μl plasma sample was adjusted to pH 2.8–3.2 with 1 ml of 1 M hydrochloric acid (HCl), and a […] aliquot of the mixture was placed in a MCX cartridge preconditioned with 3 ml of methanol followed by 3 ml of 0.1 mol/L HCl water. The cartridge was washed with 3 ml of 0.1 mol/L HCl water and then eluted with 5 ml NH4OH/methanol (8:92, v:v). The effluent was concentrated to dryness under a stream of nitrogen at 40°C. The residue was reconstituted in 250 μl of methanol-water (1:9, v:v) before injection onto the LC-v.ARC/MS-IT-TOF system for metabolite identification and quantitation.
(§6) Measurement of total radioactivity in each sample was conducted using a Packard Tri-Carb 2900 TR liquid scintillation counter. The detection time was 10 min for two cycles.

[2] = Plasma pharmacokinetics of DVD and its metabolites in chickens after a single oral dose of ^3H-DVD (radioactive tracing, LC-v.ARC/MS-IT-TOF); settings: for Concentration in plasma: chickens
From the text: as §1, §2, §3, §4, §5, §6

[3] = design: method as in PMID 22161732; settings: pig liver microsomes incubated with DVD; cited from earlier work
[4] = pig plasma, oral ^3H-DVD 10 mg/kg BW
[5] = single oral ^3H-DVD 10 mg/kg BW, 1 h
[6] = single oral ^3H-DVD 10 mg/kg BW, 1.5 h
[7] = single oral ^3H-DVD 10 mg/kg BW, 2 h
[8] = single oral ^3H-DVD 10 mg/kg BW, 4 h
[9] = single oral ^3H-DVD 10 mg/kg BW, 6 h
[10] = single oral ^3H-DVD 10 mg/kg BW, 8 h
[11] = single oral ^3H-DVD 10 mg/kg BW, 12 h
[12] = chicken plasma, oral ^3H-DVD 10 mg/kg BW

COc1ccc(Cc2cnc(N)nc2N)cc1OC1OC(C(=O)O)C(O)C(O)C1O (stereo not drawn) [D2, monoglucuronide of 3′-desmethyl-DVD]
AUC0−∞ [1, 4]: 17580 ± 2320 ng·h/mL
ClB (total body clearance) [1, 4]: 9.67 ± 1.3 mL/min/kg
Cmax (maximum drug concentration) [1, 4]: 1380 ± 40 ng/mL
MRT0−∞ [1, 4]: 23.01 ± 1.48 h
MRTLast [1, 4]: 14.91 ± 0.41 h
Tmax (time to Cmax from time zero) [1, 4]: 2 h
Vd (apparent volume of distribution) [1, 4]: 15.39 ± 3.28 L/kg
t1/2 (elimination half-life) ([1]; pig plasma, oral ^3H-DVD 10 mg/kg BW, non-compartmental): 18.26 ± 1.70 h
Radioactive compound detected/identified in plasma ([1]; pig plasma, single oral ^3H-DVD 10 mg/kg BW): identified; also recorded: detected
Concentration in plasma ([1]; single oral ^3H-DVD 10 mg/kg BW, 0.17 h, ND = below the LOQ): 100 ± 30 ng/mL
Concentration in plasma ([1]; single oral ^3H-DVD 10 mg/kg BW, 0.33 h, ND = below the LOQ): 260 ± 110 ng/mL
Concentration in plasma ([1]; single oral ^3H-DVD 10 mg/kg BW, 0.5 h, ND = below the LOQ): 520 ± 150 ng/mL
Concentration in plasma ([1]; single oral ^3H-DVD 10 mg/kg BW, 0.67 h): 610 ± 190 ng/mL
Concentration in plasma [1, 5]: 690 ± 200 ng/mL
Concentration in plasma [1, 6]: 1230 ± 40 ng/mL
Concentration in plasma [1, 7]: 1380 ± 40 ng/mL
Concentration in plasma [1, 8]: 660 ± 50 ng/mL
Concentration in plasma [1, 9]: 500 ± 80 ng/mL
Concentration in plasma [1, 10]: 410 ± 70 ng/mL
Concentration in plasma [1, 11]: 350 ± 60 ng/mL
Concentration in plasma ([1]; single oral ^3H-DVD 10 mg/kg BW, 24 h): 270 ± 80 ng/mL
Concentration in plasma ([1]; single oral ^3H-DVD 10 mg/kg BW, 48 h): 90 ± 10 ng/mL
AUC0−∞ [2, 12]: 1730 ± 440 ng·h/mL
ClB (total body clearance) [2, 12]: 102 ± 26.3 mL/min/kg
Cmax (maximum drug concentration) [2, 12]: 270 ± 80 ng/mL
MRT0−∞ [2, 12]: 6.20 ± 0.18 h
MRTLast [2, 12]: 4.66 ± 0.17 h
Tmax (time to Cmax from time zero) [2, 12]: 2 h
Vd (apparent volume of distribution) [2, 12]: 32.45 ± 12.36 L/kg
t1/2 (elimination half-life) ([2]; chicken plasma, oral ^3H-DVD 10 mg/kg BW, non-compartmental): 3.56 ± 0.44 h
Radioactive compound detected/identified in plasma ([2]; chicken plasma, single oral ^3H-DVD 10 mg/kg BW): identified; also recorded: detected
Concentration in plasma [2, 5]: 120 ± 30 ng/mL
Concentration in plasma [2, 6]: 230 ± 30 ng/mL
Concentration in plasma [2, 7]: 270 ± 90 ng/mL
Concentration in plasma [2, 8]: 180 ± 60 ng/mL
Concentration in plasma [2, 9]: 140 ± 50 ng/mL
Concentration in plasma [2, 10]: 90 ± 30 ng/mL
Concentration in plasma [2, 11]: 40 ± 10 ng/mL
Metabolite detected in vitro [3]: no D2 was found
